Consider two compounds from US20220227997A1, “Elastomeric silicone compositions comprising glycerol, cyclodextrin and octenidine” (Coloplast A/S, priority 2019, published 2022).

For one series, the system named is Pseudomonas aeruginosa. The following applies: suspension test after 5 minutes of exposure; cited from earlier work.
A further series has as its system Escherichia coli. The following applies: suspension test after 5 minutes of exposure; cited from earlier work.
The test system of series [1] is gram positive and gram negative bacteria. To be noted: generally; cited from earlier work.
The subject of a further series is Candida albicans. The following applies: suspension test after 5 minutes of exposure; cited from earlier work.
For a further series, the system named is Staphylococcus aureus. To be noted: suspension test after 5 minutes of exposure; cited from earlier work.
Series [2] can be described thus: Solubilization of octenidine in glycerol. In kind it is physicochemical. The following applies: without cyclodextrin. The text has this: Octenidine is an amphiphilic substance therefore its solubility in glycerol is negligible, but may form micelles for higher solubility. In this study β-cyclodextrin (βCD) was used as a tool for allowing significant amounts of hydrophobic substances to be dissolved in hydrophilic media such as glycerol. Cyclodextrins as cyclic oligosaccharides that form host-guest complexes with hydrophobic molecules thereby enabling multiple potential uses. Here octenidine (0.35 g) and β-cyclodextrin (0.3182 g) were added to glycerol. The molar ratio between octenidine and β-cyclodextrin in the example was 2:1. The mixture was heated up to 80° C. and agitated using a magnetic stirrer until a clear solution was obtained (usually no longer than 30 minutes). Obtaining a clear mixture is indicative of successful preparation of a βCD-octenidine complex.

The conditions of series [3]: in water; estimated by Steward et al.; cited from earlier work.
In another series the test system is Proteus mirabilis. To be noted: suspension test after 5 minutes of exposure; cited from earlier work.

Where a name gives a salt, the structure may show the parent alone. A value given as a limit tells only on which side of the number the result lay.

For `CCCCCCCCN=c1ccn(CCCCCCCCCCn2ccc(=NCCCCCCCC)cc2)cc1` [Octenidine dihydrochloride, N-octyl-1-[10-(4-octyliminopyridin-1-yl)decyl]pyridin-4-imine dihydro-chloride], the “Effective Concentration” value in the series on Pseudomonas aeruginosa is 0.025%; in the series on Escherichia coli, 0.025%; in the series with Candida albicans, 0.01%; with Staphylococcus aureus, 0.025%; in the series on Proteus mirabilis it was 0.025%. Further, the “Effective concentrations in suspension” value in series [1] is on record as “above 0.005 wt %”. The solubility in glycerol result in series [2] is “negligible”. For the same compound, the critical micellar concentration in series [3] is 3.79 mM.

Turning to `[H]/N=C(\N/C(=N/[H])NCCCCCCNC(=N)NC(=N)Nc1ccc(Cl)cc1)Nc1ccc(Cl)cc1` [Chlorhexidine digluconate], the “Effective Concentration” value with Pseudomonas aeruginosa was more than 0.2%; in the series on Escherichia coli, 0.1%; in the series on Candida albicans, 0.025%; with Staphylococcus aureus it was more than 0.2%; in the series on Proteus mirabilis, more than 0.2%.
